Measurements reported in patent publication US9480755B2, “Pharmaceutical composition comprising dapagliflozin and cyclodextrin” (ratiopharm GmbH, priority 2011, dated 2016).
Like-named read-outs stand apart in the source and are kept apart here.

Legend:
[1] = deionised water; for Dissolved Dapagliflozin: 25 ± 2° C.
Experimental: The effect of cyclodextrins on the aqueous solubility of dapagliflozin was studied in deionised water at 25±2° C. The solubilizing effect was studied by preparing samples having a cyclodextrin concentration in the range of 1 to 15 wt. %.
The following cyclodextrins were used: • b-cyclodextrin (BCD): CYL-2518/2 (Wacker Chemie GmbH) • (2-hydroxy)propyl-b-cyclodextrin (HPBCD): E0062 (Roquette Frères) • sulfobutylether-b-cyclodextrin (SBEBCD): 47K040508 (CycloLab)

[2] = Experimental: Literatural examples indicate that the effectiveness of complex formation may be increased upon the addition of hydroxycarboxylic acids, especially citric acid in case the complex forming cyclodextrin or its complex is subject to aggregation. Often this is the case when parent cyclodextrins are applied. […] As a proof of concept, representative isotherm data were determined in the presence of citric acid (added in equimolar ratio with the pharmacon) and compared to the original dissolved concentrations (Table 2).

Dissolved Dapagliflozin ([1]; BCD 0.5 wt. %): 3.3 mg/mL | Dissolved Dapagliflozin ([1]; BCD 1.0 wt. %): 4.7 mg/mL | Dissolved Dapagliflozin ([1]; BCD 1.5 wt. %): 6.3 mg/mL | Dissolved Dapagliflozin ([1]; BCD 2.0 wt. %): 7.7 mg/mL | Dissolved Dapagliflozin ([1]; HPBCD 1.0 wt. %): 4.4 mg/mL | Dissolved Dapagliflozin ([1]; HPBCD 2.0 wt. %): 7.2 mg/mL | Dissolved Dapagliflozin ([1]; HPBCD 2.5 wt. %): 8.6 mg/mL | Dissolved Dapagliflozin ([1]; HPBCD 3.0 wt. %): 9.7 mg/mL | Dissolved Dapagliflozin ([1]; HPBCD 4.0 wt. %): 12.5 mg/mL | Dissolved Dapagliflozin ([1]; HPBCD 5.0 wt. %): 14.4 mg/mL | Dissolved Dapagliflozin ([1]; HPBCD 10.0 wt. %): 14.1 mg/mL | Dissolved Dapagliflozin ([1]; HPBCD 15.0 wt. %): 14.0 mg/mL | Dissolved Dapagliflozin ([1]; HPGCD 1.0 wt. %): 4.2 mg/mL | Dissolved Dapagliflozin ([1]; HPGCD 5.0 wt. %): 11.3 mg/mL | Dissolved Dapagliflozin ([1]; HPGCD 10.0 wt. %): 14.9 mg/mL | Dissolved Dapagliflozin ([1]; HPGCD 15.0 wt. %): 14.4 mg/mL | Dissolved Dapagliflozin ([1]; SBEBCD 1.0 wt. %): 3.8 mg/mL | Dissolved Dapagliflozin ([1]; SBEBCD 5.0 wt. %): 10.7 mg/mL | Dissolved Dapagliflozin ([1]; SBEBCD 10.0 wt. %): 13.1 mg/mL | Dissolved Dapagliflozin ([1]; SBEBCD 15.0 wt. %): 12.8 mg/mL | Dissolved Dapagliflozin ([1]; no cyclodextrin): 1.6 mg/mL | effect of the interactions with cyclodextrins on solubility ([1]; cyclodextrin-concentration dependent): significant solubility enhancement | Dissolved Dapagliflozin ([2]; HPBCD 1.0% + 28 mg citric acid (equimolar with the drug)): 4.1 mg/mL | Dissolved Dapagliflozin ([2]; HPBCD 2.5% + 28 mg citric acid (equimolar with the drug)): 8.1 mg/mL | Dissolved Dapagliflozin ([2]; HPBCD 5.0% + 28 mg citric acid (equimolar with the drug)): 14.3 mg/mL
Structure (SMILES): CCOc1ccc(Cc2cc([C@@H]3O[C@H](CO)[C@@H](O)[C@H](O)[C@H]3O)ccc2Cl)cc1 [dapagliflozin, (2S,3R,4R,5S,6R)-2-[4-chloro-3-(4-ethoxybenzyl)phenyl]-6-(hydroxymethyl)-tetrahydro-2H-pyran-3,4,5-triol]
